Experimental data published in ChEMBL document CHEMBL1201862, “PubChem BioAssay data set” (2004).
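Step 1: Grow cells in 96-well plates. Step 2: Expose to compound for 48 hours at 5 concentrations. Step 3: Interpolate endpoints linearly; if unreached, use highest concentration. GI50 marks 50% less growth.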 Calls of active or inactive are those of the source. Cut-off read from the data, not from the text of the source: active = GI50 up to about 1.1 µM and inactive = higher.

What was measured:
Test in all cases: NCI anticancer screen, dose series, 48 h
BT-549 = system: BT-549
KM12 = system: KM12
RPMI-8226 = system: RPMI-8226
T47D = system: T47D
OVCAR-3 = system: OVCAR-3
HOP-92 = system: HOP-92
PC-3 = system: PC-3
NCI-H460 = system: NCI-H460
SF-539 = system: SF-539
CAKI-1 = system: CAKI-1
HCT-15 = system: HCT-15
HCT-116 = system: HCT-116
MCF7 = system: MCF7
HT-29 = system: HT-29
UACC-62 = system: UACC-62
TK-10 = system: TK-10
SK-MEL-2 = system: SK-MEL-2
HOP-62 = system: HOP-62
NCI-H522 = system: NCI-H522

NC(=O)NC(=O)c1cccc(NC(=O)CCl)c1
GI50 (BT-549): 1.41 µM (inactive) | GI50 (KM12): 0.579 µM (active) | GI50 (RPMI-8226): 1.18 µM (inactive) | GI50 (T47D): 2.18 µM (inactive) | GI50 (OVCAR-3): 0.223 µM (active) | GI50 (HOP-92): 4.34 µM (inactive) | GI50 (PC-3): 1.08 µM (active) | GI50 (NCI-H460): 1.5 µM (inactive) | GI50 (SF-539): 0.655 µM (active) | GI50 (CAKI-1): 1.39 µM (inactive) | GI50 (HCT-15): 0.948 µM | GI50 (HCT-116): 0.392 µM (active) | GI50 (MCF7): 0.989 µM (active) | GI50 (HT-29): 0.883 µM (active) | GI50 (UACC-62): 0.687 µM (active) | GI50 (TK-10): 1.35 µM (inactive) | GI50 (SK-MEL-2): 2.38 µM (inactive) | GI50 (HOP-62): 1.61 µM (inactive) | GI50 (NCI-H522): 1.55 µM (inactive)

CCOC(=O)/C=C(\C(=O)OCC)n1ccc(=O)[nH]c1=O
GI50 (BT-549): 16.7 µM (inactive) | GI50 (KM12): 17.9 µM (inactive) | GI50 (RPMI-8226): 13.1 µM (inactive) | GI50 (T47D): 6.59 µM (inactive) | GI50 (OVCAR-3): 13.2 µM (inactive) | GI50 (HOP-92): 2.55 µM (inactive) | GI50 (PC-3): 16.9 µM (inactive) | GI50 (NCI-H460): 21.7 µM (inactive) | GI50 (SF-539): 24.2 µM (inactive) | GI50 (CAKI-1): 1.91 µM (inactive) | GI50 (HCT-15): 6.27 µM | GI50 (HCT-116): 6.31 µM (inactive) | GI50 (MCF7): 9.2 µM (inactive) | GI50 (HT-29): 15.2 µM (inactive) | GI50 (UACC-62): 16.4 µM (inactive) | GI50 (TK-10): 13.3 µM (inactive) | GI50 (SK-MEL-2): 23.4 µM (inactive) | GI50 (HOP-62): 26.9 µM (inactive) | GI50 (NCI-H522): 0.684 µM (active)

O=C1C=CC(=O)c2c(O)c(N3CCN(c4ccccn4)CC3)cc(O)c21
GI50 (BT-549): 10.7 µM (inactive) | GI50 (KM12): 11 µM (inactive) | GI50 (RPMI-8226): 4.68 µM (inactive) | GI50 (T47D): 29.4 µM (inactive) | GI50 (OVCAR-3): 4.18 µM (inactive) | GI50 (HOP-92): 10.2 µM (inactive) | GI50 (PC-3): 16.2 µM (inactive) | GI50 (NCI-H460): 3.24 µM (inactive) | GI50 (SF-539): 4.85 µM (inactive) | GI50 (CAKI-1): 8 µM (inactive) | GI50 (HCT-15): 3.28 µM | GI50 (HCT-116): 2.85 µM (inactive) | GI50 (MCF7): 3.11 µM (inactive) | GI50 (HT-29): 4.3 µM (inactive) | GI50 (UACC-62): 5.9 µM (inactive) | GI50 (TK-10): 34.7 µM (inactive) | GI50 (SK-MEL-2): 5.92 µM (inactive) | GI50 (HOP-62): 21 µM (inactive) | GI50 (NCI-H522): 5.06 µM (inactive)

O=C(O)c1c(-c2c3ccc(=O)cc-3oc3cc(O)ccc23)cc2ccccc2c1-c1ccccc1
GI50 (BT-549): > 100 µM (inactive) | GI50 (KM12): > 100 µM (inactive) | GI50 (RPMI-8226): > 100 µM (inactive) | GI50 (T47D): > 93.1 µM (inactive) | GI50 (OVCAR-3): > 100 µM (inactive) | GI50 (HOP-92): > 100 µM (inactive) | GI50 (PC-3): > 100 µM (inactive) | GI50 (NCI-H460): > 66.4 µM (inactive) | GI50 (SF-539): > 100 µM (inactive) | GI50 (CAKI-1): > 100 µM (inactive) | GI50 (HCT-15): > 100 µM | GI50 (HCT-116): > 100 µM (inactive) | GI50 (MCF7): > 100 µM (inactive) | GI50 (HT-29): > 100 µM (inactive) | GI50 (UACC-62): > 100 µM (inactive) | GI50 (TK-10): > 36.6 µM (inactive) | GI50 (SK-MEL-2): > 100 µM (inactive) | GI50 (HOP-62): > 100 µM (inactive) | GI50 (NCI-H522): > 100 µM (inactive)

COc1ccc(/N=C2\C(=N/c3ccc(OC)cc3)N(S(=O)(=O)c3ccccc3)C(=S)N2c2ccccc2)cc1
GI50 (BT-549): > 100 µM (inactive) | GI50 (KM12): > 100 µM (inactive) | GI50 (RPMI-8226): > 100 µM (inactive) | GI50 (T47D): > 100 µM (inactive) | GI50 (OVCAR-3): > 100 µM (inactive) | GI50 (HOP-92): > 100 µM (inactive) | GI50 (PC-3): > 100 µM (inactive) | GI50 (NCI-H460): > 100 µM (inactive) | GI50 (SF-539): > 100 µM (inactive) | GI50 (CAKI-1): > 100 µM (inactive) | GI50 (HCT-15): > 100 µM | GI50 (MCF7): > 100 µM (inactive) | GI50 (HT-29): > 100 µM (inactive) | GI50 (UACC-62): > 100 µM (inactive) | GI50 (TK-10): > 100 µM (inactive) | GI50 (SK-MEL-2): > 100 µM (inactive) | GI50 (HOP-62): > 100 µM (inactive) | GI50 (NCI-H522): 86.3 µM (inactive)

CC(SC(=S)N1CCOCC1)C(=O)Nc1nnc(-c2ccccc2)o1 (stereo not given)
GI50 (BT-549): > 100 µM (inactive) | GI50 (KM12): > 100 µM (inactive) | GI50 (RPMI-8226): 43.1 µM (inactive) | GI50 (T47D): 91.6 µM (inactive) | GI50 (OVCAR-3): > 100 µM (inactive) | GI50 (PC-3): 57.1 µM (inactive) | GI50 (NCI-H460): > 100 µM (inactive) | GI50 (SF-539): > 100 µM (inactive) | GI50 (CAKI-1): > 100 µM (inactive) | GI50 (HCT-15): 29.7 µM | GI50 (HCT-116): 93.3 µM (inactive) | GI50 (MCF7): 60.1 µM (inactive) | GI50 (HT-29): 61.1 µM (inactive) | GI50 (TK-10): > 100 µM (inactive) | GI50 (SK-MEL-2): > 100 µM (inactive) | GI50 (HOP-62): > 100 µM (inactive) | GI50 (NCI-H522): 39.8 µM (inactive)

Nc1cc(O)c2c(c1O)C(=O)C=CC2=O
GI50 (BT-549): 16.7 µM (inactive) | GI50 (KM12): 19.6 µM (inactive) | GI50 (RPMI-8226): 5.2 µM (inactive) | GI50 (T47D): 13.2 µM (inactive) | GI50 (OVCAR-3): 2.64 µM (inactive) | GI50 (HOP-92): 14.8 µM (inactive) | GI50 (PC-3): 19.5 µM (inactive) | GI50 (NCI-H460): 9.57 µM (inactive) | GI50 (SF-539): 18.9 µM (inactive) | GI50 (CAKI-1): 18.6 µM (inactive) | GI50 (HCT-15): 7.41 µM | GI50 (HCT-116): 5.19 µM (inactive) | GI50 (MCF7): 7.13 µM (inactive) | GI50 (HT-29): 4.55 µM (inactive) | GI50 (UACC-62): 11.4 µM (inactive) | GI50 (TK-10): 26.6 µM (inactive) | GI50 (SK-MEL-2): 14 µM (inactive) | GI50 (HOP-62): 27.3 µM (inactive) | GI50 (NCI-H522): 5.9 µM (inactive)
